# Test results: article PMC10202811 (Nature Medicine, 2023)
# Where “and” joins values, the source holds several entries; their conditions need not be identical. Identical values can stand only once.
# Assay: Plasma pharmacokinetics of lorlatinib at steady state (LC-MS/MS, non-compartmental analysis)
# Format: in vivo, human
# From the text: Lorlatinib was isolated from human plasma by a liquid-iquid extraction procedure. […] A linear-log trapezoidal method was used [NT] A best-fit method was used to estimate terminal elimination and to extrapolate any plasma concentration versus time profiles to compute [NT].
# [1] = Cohort A1, 45 mg/m2 per dose, C1D15, Max, N 3
# [2] = Cohort A1, 45 mg/m2 per dose, C1D15, Min, N 3
# [3] = Cohort A1, 45 mg/m2 per dose, C1D15, individual patient
# [4] = Cohort A1, 60 mg/m2 per dose, C1D15, Max, N 3
# [5] = Cohort A1, 60 mg/m2 per dose, C1D15, Min, N 3
# [6] = Cohort A1, 60 mg/m2 per dose, C1D15, individual patient
# [7] = Cohort A1, 75 mg/m2 per dose, C1D15, Max, N 3
# [8] = Cohort A1, 75 mg/m2 per dose, C1D15, Min, N 3
# [9] = Cohort A1, 75 mg/m2 per dose, C1D15, individual patient
# [10] = Cohort A1, 95 mg/m2 per dose, C1D15, Max, N 9
# [11] = Cohort A1, 95 mg/m2 per dose, C1D15, Min, N 9
# [12] = Cohort A1, 95 mg/m2 per dose, C1D15, individual patient
# [13] = Cohort A1, 115 mg/m2 per dose, C1D15, Max, N 6
smiles,measurement,setting,value
"C[C@H]1Oc2cc(cnc2N)-c2c(nn(C)c2C#N)CN(C)C(=O)c2ccc(F)cc21 [Lorlatinib, (10R)-7-amino-12-fluoro-2,10,16-trimethyl-15-oxo-10,15,16,17-tetrahydro-2H-8,4-(metheno)pyrazolo[4,3-h][2,5,11]-benzoxadiazacyclotetradecine-3-carbonitrile]",AUCtau or Cmax at steady state with oral dispersion formulation,17 patients who received the oral dispersion formulation,no differences
same,CLss_F,"Cohort A1, 45 mg/m2 per dose, C1D15, Geometric Mean, N 3",15.376 L/h
same,AUC_TAU,[1],3727.9 ng·h/mL
same,CLss_F,[1],19.85 L/h
same,Cmax,[1],639 ng/mL
same,Tmax,[1],2 h
same,AUC_TAU,[2],1259.74 ng·h/mL
same,Cmax,[2],243 ng/mL
same,Tmax,[2],1 h
same,AUC_TAU,[3],1259.74 ng·h/mL and 3727.9 ng·h/mL
same,CLss_F,[3],19.85 L/h and 12.41 L/h and 14.75 L/h
same,Cmax,[3],639 ng/mL and 243 ng/mL
same,Tmax,[3],2 h
same,CLss_F,"Cohort A1, 60 mg/m2 per dose, C1D15, Geometric Mean, N 3",13.223 L/h
same,AUC_TAU,[4],4173.07 ng·h/mL
same,CLss_F,[4],16.77 L/h
same,Cmax,[4],623 ng/mL
same,Tmax,[4],2 h
same,CLss_F,"Cohort A1, 60 mg/m2 per dose, C1D15, Median, N 3",12.07 L/h
same,AUC_TAU,[5],3503.02 ng·h/mL
same,CLss_F,[5],11.42 L/h
same,Cmax,[5],343 ng/mL
same,Tmax,[5],1 h
same,AUC_TAU,[6],3503.02 ng·h/mL and 4173.07 ng·h/mL
same,CLss_F,[6],12.07 L/h and 11.42 L/h and 16.77 L/h
same,Cmax,[6],343 ng/mL
same,Tmax,[6],2 h
same,CLss_F,"Cohort A1, 75 mg/m2 per dose, C1D15, Geometric Mean, N 3",15.412 L/h
same,AUC_TAU,[7],6555.75 ng·h/mL
same,CLss_F,[7],18.36 L/h
same,Cmax,[7],670 ng/mL
same,Tmax,[7],6 h
same,CLss_F,"Cohort A1, 75 mg/m2 per dose, C1D15, Median, N 3",17.43 L/h
same,AUC_TAU,[8],2723.69 ng·h/mL
same,CLss_F,[8],11.44 L/h
same,Cmax,[8],609 ng/mL
same,Tmax,[8],1 h
same,AUC_TAU,[9],6555.75 ng·h/mL and 2723.69 ng·h/mL
same,CLss_F,[9],11.44 L/h and 17.43 L/h and 18.36 L/h
same,Cmax,[9],609 ng/mL and 670 ng/mL
same,Tmax,[9],6 h and 2 h
same,CLss_F,"Cohort A1, 95 mg/m2 per dose, C1D15, Geometric Mean, N 9",9.802 L/h
same,AUC_TAU,[10],14697.9 ng·h/mL
same,CLss_F,[10],14.62 L/h
same,Cmax,[10],1880 ng/mL
same,CLss_F,"Cohort A1, 95 mg/m2 per dose, C1D15, Median, N 9",10.12 L/h
same,AUC_TAU,[11],3760.87 ng·h/mL
same,CLss_F,[11],6.46 L/h
same,Cmax,[11],590 ng/mL
same,Tmax,[11],1 h
same,AUC_TAU,[12],14697.9 ng·h/mL and 11566.7 ng·h/mL and 5234.23 ng·h/mL and 6616.73 ng·h/mL and 4786.75 ng·h/mL and 7725.79 ng·h/mL and 3760.87 ng·h/mL and 12827.9 ng·h/mL
same,CLss_F,[12],6.46 L/h and 12.54 L/h and 10.51 L/h and 8.31 L/h and 12.53 L/h and 7.77 L/h and 10.12 L/h and 14.62 L/h and 8.19 L/h
same,Cmax,[12],1420 ng/mL and 607 ng/mL and 842 ng/mL and 590 ng/mL and 1230 ng/mL and 1220 ng/mL and 938 ng/mL and 1880 ng/mL
same,Tmax,[12],2 h
same,CLss_F,"Cohort A1, 115 mg/m2 per dose, C1D15, Geometric Mean, N 6",11.462 L/h
same,AUC_TAU,[13],14092.4 ng·h/mL
same,CLss_F,[13],16.79 L/h
same,Cmax,[13],2090 ng/mL
same,CLss_F,"Cohort A1, 115 mg/m2 per dose, C1D15, Median, N 6",10.95 L/h
same,AUC_TAU,"Cohort A1, 115 mg/m2 per dose, C1D15, Min, N 6",5878.52 ng·h/mL
